Assay results: patent US7507727B2, “Substituted quinobenzoxazine analogs and methods of using thereof” (Cylene Pharmaceuticals, Inc., priority 2003, dated 2009)
pIC50: −log10 of the molar value. Where two headings read alike, the source gives them in different places.

Legend:
[1] = tested on: HeLa cells; assay: MTS cell proliferation and/or cytotoxicity assay; type: cell-based, Human; conditions: concentration at which 50% of antiproliferative cell response is seen, 3 days incubation, read-out: MTS Data Hella
Description: Cell culture. Human cervical epithelial cells (HeLa cells) were obtained from American Type Culture Collection (Manassas, Va.). Cells were grown in Eagle's minimum essential medium (MEM, Hyclone, Utah) supplemented with 2 mM Glutamine, 0.1 mM nonessential amino acid, 1 mM Na Pyruvate, 1.5 g/L NaHCO3, 50 mg/L gentamicin, and 10% fetal bovine serum (Hyclone, USA) in a humidified atmosphere of 5% CO2 at 37° C.
MTS assays. Antiproliferative effects of the compounds were tested by the CellTiter 96 AQueous assay (Promega, WI), which is a calorimetric assay for determining the number of viable cells. (See, e.g., Wang, L., et al., Methods Cell Sci (1996) 18:249-255). In one example, cells (4,500 cells/well) were seeded on 96 well flat bottom plates (Corning, N.Y.) in 100 μl of culture medium without any anticancer drug on day 0, and the culture medium was exchanged for that //contained anticancer drugs at various concentrations on day 1. After incubation for 3 days under normal growth conditions (on day 4), the monolayers were washed once in PBS, and the medium was switched to 100 μl of PBS in each of the 96 well plate. After mixing MTS and PMS at the ratio of 20:1, 20 μl of MTS/PMS solution was added to each of the 96 well plate and incubated for 4 hours in a humidified atmosphere of 5% CO2 at 37° C. The absorbance was read at 490 nm using FLUOstar Galaxy 96 well plate reader (BMG Labtechnologies, Germany). μM concentrations (MTS data) reported in Table 1 are concentrations at which 50% of antiproliferative cell response is seen.

[2] = target: c-Myc template DNA (c-myc quadruplex); assay: Quadruplex binding / stop assay (Taq polymerase arrest, capillary electrophoresis); conditions: read-out: Stop Data c-Myc μM; concentration at which 50% of the DNA was arrested (arrested:full-length 1:1)

SMILES | pIC50 ([1]; Homo sapiens, HeLa, 72 h) | IC50 [2] [µM] | pIC50 [1]
CC(C)(C)OC(=O)N[C@H]1CCN(c2c(F)cc3c(=O)c(C(=O)O)cn4c5cc6oc7cc([N+](=O)[O-])ccc7[nH]c6cc5oc2c34)C1 [compound 24] | 5.15 | 0.5 | 
NC1CCN(c2c(F)cc3c(=O)c(C(=O)O)cn4c5cc6c(=O)c7ccccc7c(=O)c6cc5oc2c34)C1 (stereo not drawn) [compound 25] | 6.70 | 0.25 | 
CN1CCCC1CCNC(=O)c1cn2c3c(c(NC[C@@H]4CCCO4)c(F)cc3c1=O)Oc1cc3ccccc3cc1-2 (stereo partly drawn) [compound 26] |  | 4 | 6.14
CCN(CC)CCCC(C)NC(=O)c1cn2c3c(c(N4CCC(c5cnccn5)C4)c(F)cc3c1=O)Oc1cc3ccccc3cc1-2 (stereo not drawn) [compound 27] | 5.42 | 3 | 
CCN(CC)CCCC(C)NC(=O)c1cn2c3c(c(N4CCC(c5cnccn5)C4)c(F)cc3c1=O)Oc1ccccc1-2 (stereo not drawn) [compound 28] | 5.60 | 3 | 
CCN(CC)CCCC(C)NC(=O)c1cn2c3c(c(N4CCC(c5cnccn5)C4)ccc3c1=O)Oc1ccccc1-2 (stereo not drawn) [compound 29] | 5.70 | 3 | 
O=C(NCCN1CCCC1)c1cn2c3c(c(N4CCC(c5cnccn5)C4)ccc3c1=O)Oc1ccccc1-2 (stereo not drawn) [compound 30] | 5.74 | 3 | 
O=C(NCCN1CCCC1)c1cn2c3c(c(NCC4CCCO4)c(F)cc3c1=O)Oc1cc3ccccc3cc1-2 (stereo not drawn) [compound 31] | 5.85 | 3 | 
O=C(NCCN1CCCC1)c1cn2c3c(c(N4CCC(c5cnccn5)C4)c(F)cc3c1=O)Oc1ccccc1-2 (stereo not drawn) [compound 32] | 6.22 | 3 | 
CN1CCCC1CCNC(=O)c1cn2c3c(c(NC[C@@H]4CCCO4)c(F)cc3c1=O)Oc1cc3ccccc3cc1-2 (stereo partly drawn) [compound 33] |  | 3 | 6.54
CN1CCCC1CCNC(=O)c1cn2c3c(c(NC[C@H]4CCCO4)c(F)cc3c1=O)Oc1cc3ccccc3cc1-2 (stereo partly drawn) [compound 34] | 6.55 | 3 | 
N[C@H]1CCN(c2c(F)cc3c(=O)c(C(=O)NCCN4CCCC4)cn4c3c2Oc2ccccc2-4)C1 [compound 35] |  | 3 | 6.68
CN1CCCC1CCNC(=O)c1cn2c3c(c(N4CC[C@H](N)C4)c(F)cc3c1=O)Oc1ccccc1-2 (stereo partly drawn) [compound 36] | 6.80 | 3 | 
O=C(N[C@H]1C(O)O[C@H](CO)[C@H](O)[C@@H]1O)c1cn2c3c(c(NCCCN4CCOCC4)c(F)cc3c1=O)Oc1cc3c(cc1-2)oc1ccccc13 (stereo partly drawn) [compound 37] | 5.55 | 2.5 | 
CN1CCCC1CCNC(=O)c1cn2c3c(c(NC[C@H]4CCCO4)c(F)cc3c1=O)Oc1cc3ccccc3cc1-2 (stereo partly drawn) [compound 38] |  | 2.5 | 6.59
CN1CCCC1CCNC(=O)c1cn2c3c(c(NCCCN4CCCC4=O)c(F)cc3c1=O)Oc1cc3ccccc3cc1-2 (stereo not drawn) [compound 102] | 5.66 | 1.8 | 
CN(C)C1CCN(c2c(F)cc3c(=O)c(C(=O)NCCC4CCCN4C)cn4c3c2Oc2cc3ccccc3cc2-4)C1 (stereo not drawn) [compound 104] | 5.55 | 1.75 | 
CCN(CC)C1CCN(c2c(F)cc3c(=O)c(C(=O)NCCC4CCCN4C)cn4c3c2Oc2cc3ccccc3cc2-4)C1 (stereo not drawn) [compound 105] | 5.55 | 1.75 | 
CN(C)CCCCNC(=O)c1cn2c3c(c(N4CC[C@@H](N)C4)c(F)cc3c1=O)Oc1ccccc1-2 [compound 106] | 5.60 | 1.75 | 
O=C(NCCN1CCCC1)c1cn2c3c(c(NCCCN4CCOCC4)c(F)cc3c1=O)Oc1cc3c(O)ncnc3cc1-2 [compound 107] | 5.74 | 1.75 | 
CN(C)CCCCNC(=O)c1cn2c3c(c(N4CC[C@H](N)C4)c(F)cc3c1=O)Oc1ccccc1-2 [compound 108] | 6.34 | 1.75 | 
N[C@H]1CCN(c2c(F)cc3c(=O)c(C(=O)NCCN4CCCC4)cn4c3c2Oc2ccccc2-4)C1 [compound 109] | 6.51 | 1.75 | 
CN1CCCC1CCNC(=O)c1cn2c3c(c(N4CC[C@@H](N)C4)c(F)cc3c1=O)Oc1c-2ccc2ccccc12 (stereo partly drawn) [compound 110] | 6.60 | 1.75 | 
CN1CCCC1CCNC(=O)c1cn2c3c(c(N4CC[C@@H](N)C4)c(F)cc3c1=O)Oc1ccccc1-2 (stereo partly drawn) [compound 111] | 6.66 | 1.75 | 

SMILES | pIC50 ([1]; Homo sapiens, HeLa, 72 h) | IC50 [2] [µM] | pIC50 [1]
N[C@@H]1CCN(c2c(F)cc3c(=O)c(C(=O)NCCN4CCCC4)cn4c3c2Oc2ccccc2-4)C1 [compound 112] | 6.66 | 1.75 | 
O=C(NCCN1CCCC1)c1cn2c3c(c(N4CCC(c5cnccn5)C4)ccc3c1=O)Oc1cc3ccccc3cc1-2 (stereo not drawn) [compound 303] | 5.68 | 1.5 | 
CN1CCCC1CCNC(=O)c1cn2c3c(c(NCCN4CCCC4)c(F)cc3c1=O)Oc1cc3c(cc1-2)oc1ccccc13 (stereo not drawn) [compound 306] | 5.49 | 1 | 
CN(CCc1ccccn1)C(=O)c1cn2c3c(c(NCCCN4CCOCC4)c(F)cc3c1=O)Oc1cc3c(cc1-2)-c1ccccc1C3 [compound 307] | 5.51 | 1 | 
O=C(CCN1CCCCC1)N[C@@H]1CCN(c2c(F)cc3c(=O)c(C(=O)NCCN4CCCC4)cn4c3c2Oc2cc3c(cc2-4)oc2ccccc23)C1 [compound 308] | 5.51 | 1 | 
CCN(CC)CCCC(C)NC(=O)c1cn2c3c(c(N4CCC(c5cnccn5)C4)ccc3c1=O)Oc1cc3ccccc3cc1-2 (stereo not drawn) [compound 309] | 5.52 | 1 | 
COc1ccc(CCNc2c(F)cc3c(=O)c(C(=O)NCCC4CCCN4C)cn4c3c2Oc2cc3ccccc3cc2-4)cc1OC (stereo not drawn) [compound 310] | 5.64 | 1 | 
CN1CCCC1CCNC(=O)c1cn2c3c(c(N4CCC(N)C4)c(F)cc3c1=O)Oc1cc(-c3nc4ccccc4s3)ccc1-2 (stereo not drawn) [compound 311] | 5.68 | 1 | 
CC(C)NCCCNC(=O)c1cn2c3c(c(N4CCC(NC(=O)OC(C)(C)C)C4)c(F)cc3c1=O)Oc1cc3ccccc3cc1-2 (stereo not drawn) [compound 312] | 5.72 | 1 | 
CN1CCN(c2c(F)cc3c(=O)c(C(=O)NCCN4CCCC4)cn4c5cc6c(=O)c7ccccc7c(=O)c6cc5oc2c34)CC1 [compound 340] | 5.07 | 0.9 | 
N[C@H]1CCN(c2c(F)cc3c(=O)c(C(=O)NCCN4CCCC4)cn4c3c2Oc2cc3ccccc3cc2-4)C1 [compound 341] | 6.55 | 0.9 | 
CN(C)CCCCNC(=O)c1cn2c3c(c(N4CC[C@@H](NC(=O)CCN5CCN(C)CC5)C4)c(F)cc3c1=O)Oc1cc3c(cc1-2)oc1ccccc13 [compound 357] | 5.07 | 0.75 | 
O=C(CCNCCN1CCOCC1)N[C@@H]1CCN(c2c(F)cc3c(=O)c(C(=O)NCCN4CCCC4)cn4c3c2Oc2cc3c(cc2-4)oc2ccccc23)C1 [compound 358] | 5.24 | 0.75 | 
CN(C)CCCCNC(=O)c1cn2c3cc4oc5cc([N+](=O)[O-])ccc5[nH]c4cc3oc3c(NCCN4CCCC4)c(F)cc(c1=O)c32 [compound 359] | 5.32 | 0.75 | 
CN1CCN(CCC(=O)N[C@@H]2CCN(c3c(F)cc4c(=O)c(C(=O)NCCC5CCCN5C)cn5c4c3Oc3cc4c(cc3-5)oc3ccccc34)C2)CC1 (stereo partly drawn) [compound 360] | 5.35 | 0.75 | 
O=C(NCCN1CCOCC1)c1cn2c3c(c(NCCCN4CCOCC4)c(F)cc3c1=O)Oc1cc3c(cc1-2)oc1ccccc13 [compound 361] | 5.38 | 0.75 | 
CN1CCCC1CCNC(=O)c1cn2c3c(c(NCCCN4CCOCC4)c(F)cc3c1=O)Oc1cc3c(cc1-2)oc1ccccc13 (stereo not drawn) [compound 362] | 5.40 | 0.75 | 
CN1CCN(CCCNc2c(F)cc3c(=O)c(C(=O)NCCC4CCCN4C)cn4c3c2Oc2cc3c(cc2-4)oc2ccccc23)CC1 (stereo not drawn) [compound 363] | 5.42 | 0.75 | 
CN1CCN(CCCNC(=O)c2cn3c4c(c(NCCC5CCCN5C)c(F)cc4c2=O)Oc2cc4c(cc2-3)oc2ccccc24)CC1 (stereo not drawn) [compound 364] | 5.42 | 0.75 | 
CN1CCN(CCCNC(=O)c2cn3c4c(c(NCCN5CCCC5)c(F)cc4c2=O)Oc2cc4c(cc2-3)oc2ccccc24)CC1 [compound 365] | 5.42 | 0.75 | 
CN(C)CCCCNc1c(F)cc2c(=O)c(C(=O)NCCC3CCCN3C)cn3c2c1Oc1cc2c(cc1-3)oc1ccccc12 (stereo not drawn) [compound 366] | 5.43 | 0.75 | 
CN(C)CCCCNC(=O)c1cn2c3c(c(NCCCCN(C)C)c(F)cc3c1=O)Oc1cc3c(cc1-2)oc1ccccc13 [compound 367] | 5.43 | 0.75 | 
O=C(NCCCn1ccnc1)c1cn2c3c(c(NCCN4CCCC4)c(F)cc3c1=O)Oc1cc3c(cc1-2)oc1ccccc13 [compound 368] | 5.44 | 0.75 | 
CN(C)CCCCNc1c(F)cc2c(=O)c(C(=O)NCCN3CCCC3)cn3c2c1Oc1cc2c(cc1-3)oc1ccccc12 [compound 369] | 5.46 | 0.75 | 
